We go through 1 compound from publication PMC9939292, “Cefoselis enhances breast cancer chemosensitivity by directly targeting GRP78/LRP5 signalling of cancer stem cells” (Clinical and Translational Medicine, 2023).

The term Kd denotes a measure of binding affinity in units of concentration.

This experiment concerns the target T1, recombinant GRP78 protein (Homo sapiens, UniProt P11021).
T1 construct: gene HSPA5; recombinant GRP78
Description: isothermal titration calorimetry; also SPR small molecule microarray. The class given is binding. From the text: isothermal titration calorimetry; also SPR small molecule microarray on recombinant GRP78 protein | measure the binding affinity of cefoselis with the recombinant GRP78 protein
For orientation: Isothermal titration calorimetry measures the heat released or taken up as one component is titrated into another.

T1 sequence (P11021 19-654): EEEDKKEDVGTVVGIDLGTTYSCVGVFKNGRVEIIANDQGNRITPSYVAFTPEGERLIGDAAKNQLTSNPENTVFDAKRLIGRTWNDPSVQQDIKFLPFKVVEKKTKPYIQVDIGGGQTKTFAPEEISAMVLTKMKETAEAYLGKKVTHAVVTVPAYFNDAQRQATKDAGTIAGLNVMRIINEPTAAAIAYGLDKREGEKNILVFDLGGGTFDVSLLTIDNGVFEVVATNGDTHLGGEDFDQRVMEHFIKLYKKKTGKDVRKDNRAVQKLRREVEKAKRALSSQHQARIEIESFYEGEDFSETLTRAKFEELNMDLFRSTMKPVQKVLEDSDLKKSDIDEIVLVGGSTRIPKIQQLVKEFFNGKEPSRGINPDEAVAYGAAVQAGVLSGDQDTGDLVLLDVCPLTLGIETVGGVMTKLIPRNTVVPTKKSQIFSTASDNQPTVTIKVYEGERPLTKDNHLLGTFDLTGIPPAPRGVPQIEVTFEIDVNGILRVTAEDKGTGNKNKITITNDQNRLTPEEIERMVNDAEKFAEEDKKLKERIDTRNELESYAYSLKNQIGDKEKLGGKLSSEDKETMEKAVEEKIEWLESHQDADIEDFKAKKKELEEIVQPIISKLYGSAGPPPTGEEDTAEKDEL

Regarding `CO/N=C(\C(=O)N[C@@H]1C(=O)N2C(C(=O)[O-])=C(C[n+]3ccc(N)n3CCO)CS[C@H]12)c1csc(N)n1` [cefoselis], the Kd amounted to 463 nM.
